# Columns and labels:
# bedstraw = assay: Test B pre/postemergence bedstraw; format: in vivo, Galium aparine
# In short: (§1)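 Response is a visual 0-to-10 score relative to untreated plants, where 0 means no effect and 10 means complete control, taken twelve to sixteen days after application. Treatments went onto soil at planting and onto foliage of 1- to 4-leaf plants, using a surfactant-containing non-phytotoxic solvent.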
# surinam grass = assay: Test B pre/postemergence surinam grass; format: in vivo, Brachiaria decumbens
# In short: as §1
# wild oat [1] = assay: Test B pre/postemergence wild oat; format: in vivo, Avena fatua
# In short: as §1
# bamyardgrass = assay: Test B flood test barnyardgrass; format: in vivo, Echinochloa crus-galli
# In short: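 Each value is a visual injury score relative to controls, with 10 meaning complete control and 0 no effect. Evaluation took place twelve to sixteen days after the 2-leaf-stage plants were treated and kept in the greenhouse.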
# winter wheat [2] = assay: Test E winter wheat; format: in vivo, Triticum aestivum; details: Postemergence; for Wheat (winter) plant response rating: Rate 250 g/ha
# In short: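 For postemergence, application to 1- to 4-leaf plants growing in a 60:40 sandy loam–potting mix substrate. Formulation: non-phytotoxic solvent mixture plus surfactant. Untreated controls served as the reference for the visual rating after ~21–28 days.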
# blackgrass = assay: Test E blackgrass; format: in vivo, Alopecurus myosuroides; details: Preemergence; for Blackgrass plant response rating (0 to 100 scale): Rate 250 g/ha
# green foxtail = assay: Test E green foxtail; format: in vivo, Setaria viridis; details: Preemergence; for Green foxtail plant response rating (0 to 100 scale): Rate 250 g/ha
# Italian ryegrass = assay: Test E Italian ryegrass; format: in vivo, Lolium multiflorum; details: Preemergence; for I. Ryegrass plant response rating (0 to 100 scale): Rate 250 g/ha
# winter wheat [3] = assay: Test E winter wheat; format: in vivo, Triticum aestivum; details: Preemergence; for Wheat (winter) plant response rating (0 to 100 scale): Rate 250 g/ha
# wild oat [4] = assay: Test E wild oat; format: in vivo, Avena fatua; details: Preemergence; for Wild oat plant response rating (0 to 100 scale): Rate 250 g/ha
# winter barley = assay: Test E winter barley; format: in vivo, Hordeum vulgare; details: Preemergence; for Barley (winter) plant response rating (0 to 100 scale): Rate 250 g/ha
# [5] = Preemergence, Rate 62 g/ha, scale of 0 to 10 where 0 is no effect and 10 is complete control
# [6] = Preemergence, Rate 250 g/ha, scale of 0 to 10 where 0 is no effect and 10 is complete control
# [7] = Preemergence, Rate 500 g/ha, scale of 0 to 10 where 0 is no effect and 10 is complete control
# [8] = Rate 62 g/ha, Postemergence, scale 0 to 10 (0 no effect, 10 complete control)
# [9] = Rate 125 g/ha, Postemergence, scale of 0 to 10 where 0 is no effect and 10 is complete control
# [10] = Rate 125 g/ha, Preemergence, scale of 0 to 10 where 0 is no effect and 10 is complete control
# [11] = Rate 250 g/ha, Postemergence, scale of 0 to 10 where 0 is no effect and 10 is complete control
# [12] = Rate 500 g/ha, Postemergence, scale 0 to 10, 0 no effect, 10 complete control
# [13] = Rate 62 g/ha, headed Pre-emergence (flood test species), scale 0 to 10 (0 no effect, 10 complete control)
# [14] = Rate 125 g/ha, Pre-emergence, flood test species, scale 0 to 10 where 0 is no effect and 10 is complete control
# [15] = Rate 250 g/ha, Pre-emergence, flood-test species, scale 0 to 10, 0 is no effect, 10 is complete control
# [16] = Rate 500 g/ha, Pre-emergence, flood test species, scale 0 to 10 (0 no effect, 10 complete control)
# [17] = Rate 1000 g/ha, 0 to 100 scale where 0 is no effect and 100 is complete control
# [18] = 0 to 100 scale where 0 is no effect and 100 is complete control
# [19] = Rate 500 g/ha, 0 to 100 scale, 0 is no effect, 100 is complete control
# [20] = Rate 500 g/ha, 0 to 100 scale (0 no effect, 100 complete control)
# [21] = Rate 1000 g/ha, 0 to 100 scale, 0 no effect, 100 complete control
# [22] = Postemergence, Rate 31 g/ha, visual rating, scale 0 to 10 (0 no effect, 10 complete control)
# [23] = Preemergence, Rate 31 g/ha, visual rating, scale 0 to 10 (0 no effect, 10 complete control)
# [24] = Rate 16 g/ha, Postemergence, scale 0 to 10, 0 no effect, 10 complete control
# [25] = Rate 16 g/ha, Preemergence, scale 0 to 10, 0 no effect, 10 complete control
compound,measurement,setting,value
CC(C)N(C(=O)n1oc(=O)n(C2CCCC2)c1=O)c1ccccc1 [Compound 283],Bedstraw plant response rating,bedstraw; [5],0
same,Bedstraw plant response rating,bedstraw; [6],1
same,"Plant response rating, Bedstraw",bedstraw; [7],9
same,Bedstraw plant response rating,bedstraw; [8],0
same,Bedstraw plant response rating,bedstraw; [9],1
same,Bedstraw plant response rating,bedstraw; [10],0
same,"Plant response rating, Bedstraw",bedstraw; [11],5
same,Bedstraw plant response rating,bedstraw; [12],6
same,B. signalgrass plant response rating,surinam grass; [5],6
same,B. signalgrass plant response rating,surinam grass; [6],10
same,"Plant response rating, B. signalgrass",surinam grass; [7],10
same,B. signalgrass plant response rating,surinam grass; [8],0
same,B. signalgrass plant response rating,surinam grass; [9],0
same,B. signalgrass plant response rating,surinam grass; [10],10
same,"Plant response rating, B. signalgrass",surinam grass; [11],0
same,B. signalgrass plant response rating,surinam grass; [12],2
same,Wild oats plant response rating,wild oat [1]; [5],0
same,Wild oats plant response rating,wild oat [1]; [6],4
same,"Plant response rating, Wild oats",wild oat [1]; [7],7
same,Wild oats plant response rating,wild oat [1]; [8],0
same,Wild oats plant response rating,wild oat [1]; [9],0
same,"Plant response rating, Wild oats",wild oat [1]; [11],0
same,Wild oats plant response rating,wild oat [1]; [12],0
same,Barnyardgrass plant response rating,bamyardgrass; [13],0
same,Barnyardgrass plant response rating,bamyardgrass; [14],3
same,Barnyardgrass plant response rating,bamyardgrass; [15],6
same,Barnyardgrass plant response rating,bamyardgrass; [16],6
same,"Plant response rating, Wheat (winter)",winter wheat [2]; [17],75
same,Wheat (winter) plant response rating,winter wheat [2]; [18],60
same,"Plant response rating, Wheat (winter)",winter wheat [2]; [19],50
same,Blackgrass plant response rating (0 to 100 scale),blackgrass,50
same,"Plant response rating, Blackgrass",blackgrass; [20],60
same,"Plant response rating, Blackgrass",blackgrass; [21],85
same,Green foxtail plant response rating (0 to 100 scale),green foxtail,100
same,"Plant response rating, Green foxtail",green foxtail; [20],100
same,"Plant response rating, Green foxtail",green foxtail; [21],100
same,I. Ryegrass plant response rating (0 to 100 scale),Italian ryegrass,70
same,"Plant response rating, I. Ryegrass",Italian ryegrass; [20],90
same,"Plant response rating, I. Ryegrass",Italian ryegrass; [21],98
same,Wheat (winter) plant response rating (0 to 100 scale),winter wheat [3],50
same,"Plant response rating, Wheat (winter)",winter wheat [3]; [20],65
same,"Plant response rating, Wheat (winter)",winter wheat [3]; [21],80
same,Wild oat plant response rating (0 to 100 scale),wild oat [4],65
same,"Plant response rating, Wild oat",wild oat [4]; [20],50
same,"Plant response rating, Wild oat",wild oat [4]; [21],70
same,Barley (winter) plant response rating (0 to 100 scale),winter barley,60
same,"Plant response rating, Barley (winter)",winter barley; [20],75
same,"Plant response rating, Barley (winter)",winter barley; [21],80
CCCCCn1c(=O)on(C(=O)N(c2ccc(F)cc2)C(C)C)c1=O [Compound 290],Bedstraw plant response rating,bedstraw; [22],0
same,Bedstraw plant response rating,bedstraw; [23],0
same,Bedstraw plant response rating,bedstraw; [5],0
same,Bedstraw plant response rating,bedstraw; [24],0
same,Bedstraw plant response rating,bedstraw; [25],0
same,Bedstraw plant response rating,bedstraw; [8],0
same,Bedstraw plant response rating,bedstraw; [9],0
same,Bedstraw plant response rating,bedstraw; [10],3
same,B. signalgrass plant response rating,surinam grass; [22],0
same,B. signalgrass plant response rating,surinam grass; [23],0
same,B. signalgrass plant response rating,surinam grass; [5],0
same,B. signalgrass plant response rating,surinam grass; [24],0
same,B. signalgrass plant response rating,surinam grass; [25],0
same,B. signalgrass plant response rating,surinam grass; [8],0
same,B. signalgrass plant response rating,surinam grass; [9],0
same,B. signalgrass plant response rating,surinam grass; [10],0
same,Wild oats plant response rating,wild oat [1]; [22],0
same,Wild oats plant response rating,wild oat [1]; [23],0
same,Wild oats plant response rating,wild oat [1]; [5],0
same,Wild oats plant response rating,wild oat [1]; [24],0
same,Wild oats plant response rating,wild oat [1]; [25],0
same,Wild oats plant response rating,wild oat [1]; [8],0
same,Wild oats plant response rating,wild oat [1]; [9],0
same,Barnyardgrass plant response rating,"bamyardgrass; Rate 16 g/ha, head printed Pre-emergence (flood test species), scale 0 to 10, 0 no effect, 10 complete control",0
same,Barnyardgrass plant response rating,"bamyardgrass; Rate 31 g/ha, Pre-emergence section (flood test species), scale 0 to 10",6
same,Barnyardgrass plant response rating,bamyardgrass; [13],3
same,Barnyardgrass plant response rating,bamyardgrass; [14],4
same,Barnyardgrass plant response rating,bamyardgrass; [15],4
same,Barnyardgrass plant response rating,bamyardgrass; [16],5
same,"Plant response rating, Wheat (winter)",winter wheat [2]; [17],70
same,Wheat (winter) plant response rating,winter wheat [2]; [18],50
same,"Plant response rating, Wheat (winter)",winter wheat [2]; [19],60
same,Blackgrass plant response rating (0 to 100 scale),blackgrass,60
same,"Plant response rating, Blackgrass",blackgrass; [20],70
same,"Plant response rating, Blackgrass",blackgrass; [21],95
same,Green foxtail plant response rating (0 to 100 scale),green foxtail,65
same,"Plant response rating, Green foxtail",green foxtail; [20],70
same,"Plant response rating, Green foxtail",green foxtail; [21],85
same,I. Ryegrass plant response rating (0 to 100 scale),Italian ryegrass,60
same,"Plant response rating, I. Ryegrass",Italian ryegrass; [20],70
same,"Plant response rating, I. Ryegrass",Italian ryegrass; [21],90
same,Wheat (winter) plant response rating (0 to 100 scale),winter wheat [3],10
same,"Plant response rating, Wheat (winter)",winter wheat [3]; [20],30
same,"Plant response rating, Wheat (winter)",winter wheat [3]; [21],50
same,Wild oat plant response rating (0 to 100 scale),wild oat [4],60
same,"Plant response rating, Wild oat",wild oat [4]; [20],70
same,"Plant response rating, Wild oat",wild oat [4]; [21],70
same,Barley (winter) plant response rating (0 to 100 scale),winter barley,55
same,"Plant response rating, Barley (winter)",winter barley; [20],60
same,"Plant response rating, Barley (winter)",winter barley; [21],70

# — patent US6737383B1, “Herbicidal oxadiazolidines” (priority 1999, dated 2004)
